According to patent US20170362243A1, “BIARYLETHER IMIDAZOPYRAZINE BTK INHIBITORS” (MERCK SHARP & DOHME CORP., priority 2014, published 2017):

Target: T1, BTK enzyme (recombinant full-length BTK, hBTK) (Homo sapiens, UniProt Q06187)
T1 construct: recombinant protein from baculovirus-transfected Sf9 cells: full-length BTK, 6HIS-tag cleaved; 6HIS (cleaved yes); made in house; host or cells: baculovirus-transfected Sf9 cells
Test: Btk enzyme activity assay, LANCE TR-FRET
Format: biochemical
Conditions: 50 pM hBTK, 2 μM biotin-A5-peptide, 25 μM ATP, 60 minute compound & enzyme incubation, read-out: BTK binding IC50
Method: BTK enzymatic activity was determined with the LANCE (Lanthanide Chelate Excite) TR-FRET (Time-resolved fluorescence resonance energy transfer) assay. In this assay, the potency (IC50) of each compound was determined from an eleven point (1:3 serial dilution; final compound concentration range in assay from 1 μM to 0.017 nM) titration curve using the following outlined procedure. To each well of a black non-binding surface Corning 384-well microplate (Corning Catalog #3820), 5 nL of compound (2000 fold dilution in final assay volume of 10 μL) was dispensed, followed by the addition of 7.5 μL of 1× kinase buffer (50 mM Hepes 7.5, 10 mM MgCl2, 0.01% Brij-35, 1 mM EGTA, 0.05% BSA & 1 mM DTT) containing 5.09 pg/μL (66.67 pM) of BTK enzyme (recombinant protein from baculovirus-transfected Sf9 cells: full-length BTK, 6HIS-tag cleaved). Following a 60 minute compound & enzyme incubation, each reaction was initiated by the addition of 2.5 μL 1× kinase buffer containing 8 μM biotinylated “A5” peptide (Biotin-EQEDEPEGDYFEWLE-NH2) (SEQ.ID.NO.: 1), and 100 μM ATP. The final reaction in each well of 10 μL consists of 50 pM hBTK, 2 μM biotin-A5-peptide, and 25 μM ATP. Phosphorylation reactions were allowed to proceed for 120 minutes. Reactions were immediately quenched by the addition of 20 uL of 1× quench buffer (15 mM EDTA, 25 mM Hepes 7.3, and 0.1% Triton X-100) containing detection reagents (0.626 nM of LANCE-Eu-W1024-anti-phosphoTyrosine antibody, PerkinElmer and 86.8 nM of Streptavidin-conjugated Dylight 650, Dyomics/ThermoFisher Scientific). After 60 minutes incubation with detection reagents, reaction plates were read on a PerkinElmer EnVision plate reader using standard TR-FRET protocol. Briefly, excitation of donor molecules (Eu-chelate:anti-phospho-antibody) with a laser light source at 337 nm produces energy that can be transferred to Dylight-650 acceptor molecules if this donor:acceptor pair is within close proximity. Fluorescence intensity at both 665 nm (acceptor) and 615 nm (donor) are measured and a TR-FRET ratio calculated for each well (acceptor intensity/donor intensity). IC50 values were determined by 4 parameter robust fit of TR-FRET ratio values vs. (Log10) compound concentrations.
The following Table 3 provides specific IC50 values for all the examples. The IC50 values set forth below were determined according to Assay method described above.

T1 sequence (Q06187 whole entry): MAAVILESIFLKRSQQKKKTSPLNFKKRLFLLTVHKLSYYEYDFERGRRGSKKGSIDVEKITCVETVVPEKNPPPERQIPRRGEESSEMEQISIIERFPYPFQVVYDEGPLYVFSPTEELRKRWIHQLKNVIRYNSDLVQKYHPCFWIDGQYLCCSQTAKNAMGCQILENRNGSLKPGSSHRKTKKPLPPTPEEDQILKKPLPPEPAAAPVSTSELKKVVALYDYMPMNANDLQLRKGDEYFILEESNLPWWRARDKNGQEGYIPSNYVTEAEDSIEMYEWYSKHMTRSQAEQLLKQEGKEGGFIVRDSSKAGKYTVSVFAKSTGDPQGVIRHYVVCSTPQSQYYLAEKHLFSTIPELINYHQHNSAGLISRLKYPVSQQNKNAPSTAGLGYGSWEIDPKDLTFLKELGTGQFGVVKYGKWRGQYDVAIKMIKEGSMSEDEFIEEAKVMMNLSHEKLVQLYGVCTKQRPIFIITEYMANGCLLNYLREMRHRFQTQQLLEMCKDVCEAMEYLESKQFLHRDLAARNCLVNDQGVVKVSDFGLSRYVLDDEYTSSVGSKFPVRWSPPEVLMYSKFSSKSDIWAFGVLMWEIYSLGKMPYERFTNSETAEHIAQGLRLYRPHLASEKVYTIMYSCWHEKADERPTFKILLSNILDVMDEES

Row | IC50 [nM] | Structure (SMILES)
1 | 2.4 | C[C@]1(C(=O)O)CCC[C@@H](c2nc(-c3ccc(Oc4ccccc4)cc3)c3c(N)nccn23)C1 [Example 14, (1S,3R)-3-[8-amino-1-(4-phenoxyphenyl)imidazo [1,5-a]pyrazin-3-yl]-1-methylcyclohexane-carboxylic acid]
2 | 12.3 | C[C@]1(C(=O)O)CC[C@H](c2nc(-c3ccc(Oc4ccccc4)cc3)c3c(N)nccn32)CC1 [Example 25, Trans-4-[8-amino-1-(4-phenoxyphenyl)imidazo[1,5-a]pyrazin-3-yl]-1-methylcyclohexane carboxylic acid]
3 | 0.09 | Nc1nccn2c(C34CCC(C(=O)O)(CC3)CC4)nc(-c3ccc(Oc4ccccc4)cc3)c12 [Example 6, 4-[8-amino-1-(4-phenoxyphenyl)imidazo[1,5-a]pyrazin-3-yl]bicyclo[2.2.2]octane-1-carboxylic acid]
4 | 0.26 | Nc1nccn2c(C34C=CC(C(=O)O)(CC3)CC4)nc(-c3ccc(Oc4ccccc4)cc3)c12 [Example 22, 4-[8-amino-1-(4-phenoxyphenyl)imidazo[1,5-a]pyrazin-3-yl]bicyclo[2.2.2]oct-2-ene-1-carboxylic acid]
5 | 0.14 | Nc1nccn2c(C34CCCC(C(=O)O)(CC3)CC4)nc(-c3ccc(Oc4ccccc4)cc3)c12 [Example 21, 5-[8-amino-1-(4-phenoxyphenyl)imidazo[1,5-a]pyrazin-3-yl]bicyclo[3.2.2] nonane-1-carboxylic acid]
6 | 3.3 | C[C@@]1(C(=O)O)CCC[C@H](c2nc(-c3ccc(Oc4cccc(F)c4)cc3)c3c(N)nccn23)C1 [Example 16, (1R,3S)-3-{8-amino-1-[4-(3-fluorophenoxy)phenyl]imidazo[1,5-a]pyrazin-3-yl}-1-methylcyclohexane-carboxylic acid]
7 | 1.6 | CC1(C(=O)O)CCCC(c2nc(-c3ccc(Oc4ccccc4)cc3)c3c(N)nccn23)C1 (stereo not shown) [Example 10, 3-[8-amino-1-(4-phenoxyphenyl)imidazo [1,5-a]pyrazin-3-yl]-1-mehtylcyclohexane-carboxylic acid]
8 | 1.3 | C[C@@]1(C(=O)O)CCC[C@H](c2nc(-c3ccc(Oc4ccccc4)cc3)c3c(N)nccn23)C1 [Example 15, (1R,3S)-3-[8-amino-1-(4-phenoxyphenyl)imidazo [1,5-a]pyrazin-3-yl]-1-methylcyclohexane-carboxylic acid]
9 | 1 | Nc1nccn2c1c(-c1ccc(Oc3cccc(F)c3)cc1)nc2[C@H]1CC[C@H](C(=O)O)CC1 [Example 12, trans-4-{8-amino-1-[4-(3-fluorophenoxy)phenyl]imidazo[1,5-a]pyrazin-3-yl}cyclohexanecarboxylic acid]
10 | 0.7 | CC1(C)[C@@H](c2nc(-c3ccc(Oc4ccccc4)cc3)c3c(N)nccn23)CC[C@@]1(C)C(=O)O [Example 8, (1R,3S)-3-[8-amino-1-(4-phenoxyphenyl)imidazo [1,5-a]pyrazin-3-yl]-1,2,2-trimethylcyclopenta-carboxylic acid]
11 | 0.23 | CC1(C(=O)O)CCC(C)(c2nc(-c3ccc(Oc4ccccc4)cc3)c3c(N)nccn23)C1 (single isomer, unassigned) [Example 28, 3-[8-amino-1-(4-phenoxyphenyl)imidazo[1,5-a]pyrazin-3-yl]-1,3-dimethylcyclo-pentanecarboxylic acid (E1)]
12 | 79.6 | Nc1nccn2c(C3(C(=O)O)CCOCC3)nc(-c3ccc(Oc4ccccc4)cc3)c12 [Example 24, 4-[8-amino-1-(4-phenoxyphenyl)imidazo[1,5-a]pyrazin-3-yl]tetrahydro-2H-pyran-4-carboxylic acid]
13 | 2.7 | Nc1nccn2c(N3CCC[C@H](C(=O)O)C3)nc(-c3ccc(Oc4ccccc4)cc3)c12 [Example 1, (S)-1-(8-amino-1-(4-phenoxyphenyl)imidazo[1,5-a]pyrazin-3-yl)piperidine-3-carboxylic acid]
